Consider 15 molecules from patent US6579881B2 (Eisai Co., Ltd., priority 1997, dated 2003).

Counter-ions that a name gives are not always drawn.

Molecule `COc1ccc2c(c1OC)N(C1CCN(CCc3ccc(F)cc3)CC1)CCC2` (as salt: hydrochloride) came in with a melting point of 213 to 215 °C.
The figure for `CCN1CCN([C@@H]2c3ccccc3CC2N(C)Cc2ccc(F)cc2)CC1` (stereo partly drawn) (as salt: hydrochloride) [Example 254] is 196 to 198 °C; for `COc1ccc2c(c1)N(C1CCN(CCCC#N)CC1)CCC2` (as salt: hydrochloride) [Example 269, 1-[1-(4-Cyanopropyl)piperidin-4-yl]-7-methoxy-1,2,3,4-tetrahydroquinoline Hydrochloride] it is 180 to 183 °C (dec.).
For `COc1ccc2c(c1)N(C1CCN(CCc3cccs3)CC1)CCC2` (as salt: hydrochloride) [Example 270, 1-{1-[2-(2-Thienyl)ethyl]piperidin-4-yl}-7-methoxy-1,2,3,4-tetrahydroquinoline Hydrochloride], the melting point is 232 to 235 °C.
The figure for `OCCOc1ccc2c(c1)CCCC2C1CCN(CCc2ccc(F)cc2)CC1` (stereo not drawn) (as salt: hydrochloride) [Example 278, 1-[2-(4-fluorophenyl)ethyl]-4-[6-(2-hydroxy)ethoxy-1,2,3,4-tetrahydronaphthalen-1-yl]piperidine] is 213 to 215 °C (dec.); for `COc1ccc2c(c1C)N(C1CCN(CCc3ccc(F)cc3)CC1)CCC2` (as salt: oxalate) it is 176 to 178 °C; for `O=C(CCl)NCc1ccc(CCN2CCC(N3CCc4ccccc43)CC2)cc1` (as salt: oxalate) [Example 37, 1-[1-(4-chloroacetamidomethylphenethyl)piperidin-4-yl]indoline] it is 138 °C.
The figure for `CS(=O)(=O)NCc1ccc(CCN2CCC(N3CCc4ccccc43)CC2)cc1` (as salt: oxalate) [Example 38, 1-[1-(4-methanesulfonylaminomethylphenethyl)piperidin-4-yl]indoline] is 199 °C; for `O=C(Cc1ccc2ccn(C3CCN(CCc4ccc(F)cc4)CC3)c2c1)N1CCCC1` (as salt: oxalate) [Example 298, 1-[1-(4-fluorophenethyl)piperidin-4-yl]-6-(tetramethylenecarbamoylmethyl)indole Oxalate] it is 171.5 to 172.1 °C.
The figure for `CC(=O)NCc1ccc2ccn(C3CCN(CCc4ccc(F)cc4F)CC3)c2c1` (as salt: oxalate) [Example 357, 1-[1-(2,4-difluorophenethyl)piperidin-4-yl]-6-acetamidomethylindole] is 103 to 106 °C.
In turn, `O=C1CCCN1Cc1ccc2ccn(C3CCN(CCc4ccc(F)cc4)CC3)c2c1` (as salt: oxalate) [Example 358, 1-[1-(4-fluorophenethyl)piperidin-4-yl]-6-(2-pyrrolidon-1-yl)methylindole] showed a melting point of 179 to 180 °C.
The figure for `CC(=O)N(C)Cc1ccc2ccn(C3CCN(CCc4ccc(F)cc4)CC3)c2c1` (as salt: oxalate) [Example 359, 1-[1-(4-fluorophenethyl)piperidin-4-yl]-6-N-methylacetamidomethylindole] is 148 to 149 °C; for `CNCc1ccc2ccn(C3CCN(CCc4ccc(F)cc4)CC3)c2c1` (as salt: oxalate) [Example 361, 1-[1-(4-fluorophenethyl)piperidin-4-yl]-6-N-methylaminomethylindole] it is 195 to 196 °C.
The figure for `O=C(NCc1ccc2ccn(C3CCN(CCc4ccc(F)cc4)CC3)c2c1)n1ccnc1` (as salt: oxalate) [Example 368, 1-[1-(4-fluorophenethyl)piperidin-4-yl]-6-imidazocarbonylaminomethylindole] is 156 to 157 °C; for `CN(C)CC(=O)NCc1ccc2ccn(C3CCN(CCc4ccc(F)cc4)CC3)c2c1` (as salt: oxalate) [Example 375, 1-[1-(4-fluorophenethyl)piperidin-4-yl]-6-(N,N-dimethylaminoacetamido)methylindole] it is 112 to 113 °C.

As a reminder, the melting point is the temperature, or range, at which the solid turns liquid.
